What was measured:
[1] = system: PPO2_F420I Mutant sunflower; assay: Field PPO cross-tolerance trial, mutant (Example 8); format: in vivo; details: for Phytotoxicity (%) PPO2_F420I Mutant 6DAT / Phytotoxicity (%) PPO2_F420I Mutant 11DAT / Phytotoxicity (%) PPO2_F420I Mutant 14DAT: MSO 1% v/v
Description: (§1) A field trial was carried out to assess PPO cross-tolerance in non-introgressed, selfed, homozygous PPO2_F4201 mutants, as well as to assess tolerance differences using increasing rates of herbicides listed in Table 5. The field trial was done in Utrera, Spain, in September of 2021.
(§2) Herbicide treatments (Table 5) were applied in the field when plants had the BBCH12-14 growth stage (2-4 leaves). The field trial design was the randomized complete block design, and 1 replication was considered due to limitation in seed availability. Two entries were used in the field trial, the WT line and the PPO2_F4201 mutant. The experimental plot consisted of 1 entry per plot and 1 row per entry.
(§3) Phytotoxicity of mutant and WT entries was recorded over time, at 6, 11 and 14 DAT, where 100% phytotoxicity indicates complete control (dead plants), and 0% phytotoxicity indicates no control or alive plants without any herbicide injury.

[2] = system: conventional sunflowers (Edison, ES Coloris Clearfield, inbred line HA452); assay: Field trials of sunflower sensitivity to saflufenacil (Example 1); format: in vivo, Helianthus annuus
Description: Research was conducted to evaluate the sensitivity of sunflower to the herbicide comprising the active ingredient (AI) saflufenacil (Trade name: Kixor™). The herbicide was applied in 2 field trials at different rates ranging from 0.91 g to 14 g a.i./ha (with 0.5-1% MSO-methylated seed oil-adjuvant) to 2 commercial sunflower varieties [a) a conventional (non-herbicide tolerant) sunflower (“Edison”) which is a linoleic oil-type sunflower, and b) a herbicide tolerant sunflower (“ES Coloris Clearfield which is a linoleic oil-type sunflower] and a public inbred line HA452, from the USDA (United States Department of Agriculture) National Plant Germplasm System (NPGS), deposited under Accession No. PI 642771. The treated plants were at the 2-to-4 leaf-stage (BBCH12-14). Trials were set up in a randomized complete block design with 3 replications and rated for herbicide phytotoxicity (percentage damage) 3, 7, 10 and 14 days after treatment (see also Example 4 for more details). Herbicide phytotoxicity ranges from 0% phytotoxicity (full tolerance) to 100% phytotoxicity (full susceptibility or absence of tolerance).
Full control of all sunflower materials was even observed at the first phytotoxicity evaluation time point, 3 days after treatment (DAT) with saflufenacil (results not shown).
The second field trial (trial 2) compared the adjuvant MSO at two concentrations: 1% v/v, concentration used by the farmer and 0.5%, half the concentration (FIG. 2). With the MSO concentration of 0.5% v/v, which lowers the general herbicidal efficacy of saflufenacil in weeds, control of all sunflower materials was around 80% at the lowest rate of saflufenacil (0.91 g a.i./ha) and 100% at 1.75 g a.i./ha and higher (FIG. 2).

[3] = biological target: PPO2_F383I mutant PPO2 enzyme (Helianthus annuus, UniProt A0A251TWC2, F383I); assay: In vitro PPO inhibition assay, mutant enzyme (Example 5); format: biochemical, sunflower
Chain of PPO2_F383I mutant PPO2 enzyme (Helianthus annuus, UniProt A0A251TWC2, F383I) (A0A251TWC2 entry or part of it F383I): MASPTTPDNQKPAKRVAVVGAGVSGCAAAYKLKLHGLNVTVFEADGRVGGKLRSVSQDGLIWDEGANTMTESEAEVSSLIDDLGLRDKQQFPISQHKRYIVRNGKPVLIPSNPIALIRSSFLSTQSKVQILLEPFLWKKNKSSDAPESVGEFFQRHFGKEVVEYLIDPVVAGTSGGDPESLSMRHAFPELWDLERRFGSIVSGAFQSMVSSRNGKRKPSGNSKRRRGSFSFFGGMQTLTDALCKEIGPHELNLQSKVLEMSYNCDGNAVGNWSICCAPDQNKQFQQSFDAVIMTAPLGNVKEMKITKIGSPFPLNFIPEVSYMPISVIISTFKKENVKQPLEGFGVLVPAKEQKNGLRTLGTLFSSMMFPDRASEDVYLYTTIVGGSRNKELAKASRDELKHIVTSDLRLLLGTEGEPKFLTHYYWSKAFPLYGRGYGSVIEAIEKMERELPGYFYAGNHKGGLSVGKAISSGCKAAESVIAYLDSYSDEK
Source text: (§4) To test whether the PPO2_F383I is the main cause of the observed saflufenacil tolerance, we used an in vitro to compare the inhibition potency (IC50) of different PPO inhibiting herbicides between wild-type and mutant PPO2 enzyme. The in vitro assay assesses the oxidation of protoporphyrinogen IX to protoporphyrin IX, catalyzed by the PPO enzyme. Both the wild type and mutant PPO2 proteins were heterologously expressed in E. coli and purified. Purified protein was mixed with different concentrations of the herbicide ranging from 10^−5M to 10^−11M and protein activity was measured. Protein activity is defined as the fluorescence per minute that the reaction generates. In the reaction, the purified PPO enzyme is mixed with substrate protoporphyrinogen IX and the herbicide. The product of the reaction is excited at 405 nm and produces a fluorescence at 630 nm which we detect. IC50 (in Mol) and tolerance factor were calculated.

[4] = system: PPO2_F383I mutant PPO2 enzyme; assay: as above; format: biochemical, sunflower; details: PPO2_F383I versus wild type IC50
Source text: as §4

[5] = system: homozygous PPO2_F4201 sunflower (HA452-M); assay: Greenhouse PPO cross-tolerance trial, mutant (Example 7); format: in vivo
Description: (§5) In August of 2021, a greenhouse herbicide trial was carried out in Zwijnaarde, Belgium. A homozygous PPO2_F4201 sunflower seed lot (HA452-M), and a wild type (WT) sunflower line (RHA473) were used in the greenhouse trial. Sixteen homozygous PPO2_F4201 mutant plants and six WT plants were sown and treated with each herbicide. […]

[6] = system: Wild Type (WT) sunflower line; assay: Field PPO cross-tolerance trial, wild type (Example 8); format: in vivo; details: for Phytotoxicity (%) Wild Type (WT) 6DAT / Phytotoxicity (%) Wild Type (WT) 11DAT / Phytotoxicity (%) Wild Type (WT) 14DAT: MSO 1% v/v
Description: as §1, §2, §3

[7] = system: wild type (WT) sunflower line (RHA473); assay: Greenhouse PPO cross-tolerance trial, wild type (Example 7); format: in vivo; details: dose as low as 1.25 g/ha, greenhouse, MSO 1% v/v
Description: as §5

[8] = system: progeny of mutant lead LIH16358 (PPO2_F383I); assay: Greenhouse re-assessment of saflufenacil tolerance, mutant progeny (Example 3); format: in vivo, Helianthus annuus
Source text: As it is not uncommon that in forward field mutant screening for herbicide tolerance ‘false’ tolerant plants are selected, the field candidates were reassessed in the greenhouse. Field harvested seeds of the mutant lead LIH16358 were planted in the greenhouse on Nov. 26, 2019, in Limburgerhof, Germany. The greenhouse trial had the objective to verify if the progeny of mutant lead LIH16358 would survive treatment with saflufenacil. Seeds of the susceptible wild type (HA452) line were planted in the same greenhouse trial as the susceptible reference. Saflufenacil was sprayed at 2.5 g a.i./ha on Dec. 10, 2019. The 2.5 g a.i./ha of saflufenacil corresponds to 12.5 g a.i./ha in field conditions. The final phytotoxicity evaluation in the treated plants was done on Dec. 24, 2019.
The tolerant progeny individuals of mutant lead LIH16358 produced seeds, which were planted in a follow up greenhouse trial on May 19, 2020. The plants were sprayed with 2.0 g a.i./ha of saflufenacil on Jun. 3, 2020.

[9] = biological target: wild-type PPO2 enzyme (Helianthus annuus, UniProt A0A251TWC2); assay: In vitro PPO inhibition assay, wild type enzyme (Example 5); format: biochemical, sunflower
Chain of wild-type PPO2 enzyme (A0A251TWC2 entry or part of it): as the sequence (A0A251TWC2 entry or part of it F383I) above, with I383F counted along it
Source text: as §4

## CC(C)N(C)S(=O)(=O)NC(=O)c1cc(-n2c(=O)cc(C(F)(F)F)n(C)c2=O)c(F)cc1Cl [Saflufenacil]
[1]; 3.125 g a.i./ha
  Phytotoxicity (%) PPO2_F420I Mutant 6DAT: 40%
  Phytotoxicity (%) PPO2_F420I Mutant 11DAT: 35%
  Phytotoxicity (%) PPO2_F420I Mutant 14DAT: 35%
[1]; 6.25 g a.i./ha
  Phytotoxicity (%) PPO2_F420I Mutant 6DAT: 45%
  Phytotoxicity (%) PPO2_F420I Mutant 11DAT: 40%
  Phytotoxicity (%) PPO2_F420I Mutant 14DAT: 40%
[1]; all rates of saflufenacil
  survival of the PPO2_F4201 mutant: survives
[1]; at 11 and 14 DAT
  maximum phytotoxicity in the PPO2_F4201 mutants: 40%
[2]; 0.91 g a.i./ha, 1% v/v MSO
  phytotoxicity: 100%
[2]; 1% MSO v/v, all applied rates (0.91 to 14 g a.i./ha), field trial 2
  control of sunflower materials: total control
[2]; 1.75 g a.i./ha and higher, MSO 0.5% v/v, field trial 2
  control of all sunflower materials: 100%
[2]; field trial 1, 3 days after treatment
  control of all sunflower materials: Full control
[2]; field trial 1, lowest saflufenacil rate, after 14 days
  control of all three sunflower materials: completed controlled
[3]; IC50 for PPO2_F383I
  IC50: 4.36 µM
[3]; PPO2_F383I IC50, purified enzyme expressed in E. coli, herbicide 10^-5 M to 10^-11 M
  IC50: 4.23 µM
[4]
  Tolerance factor: 2897
[5]; 10 DAT
  recovery of PPO2_F4201 plants after early phytotoxicity at 4 DAT: consistent survival and recovery
[5]; all rates tested, MSO 1% v/v
  survival of PPO2_F4201 plants: survived at all rates
[6]; 3.125 g a.i./ha
  Phytotoxicity (%) Wild Type (WT) 6DAT: 100%
  Phytotoxicity (%) Wild Type (WT) 11DAT: 100%
  Phytotoxicity (%) Wild Type (WT) 14DAT: 100%
[6]; 6.25 g a.i./ha
  Phytotoxicity (%) Wild Type (WT) 6DAT: 100%
  Phytotoxicity (%) Wild Type (WT) 11DAT: 100%
  Phytotoxicity (%) Wild Type (WT) 14DAT: 100%
[6]; saflufenacil 3.125 and 6.25 g a.i./ha
  phytotoxicity in the WT background: 100%
[7]
  kill of WT plants: all killed
[8]; 2.0 g a.i./ha, second generation progenies, 14 DAT
  phytotoxicity of individuals: ≥ 25%
[8]; 2.5 g a.i./ha, first generation progeny
  survival after treatment: survived saflufenacil treatment
[9]
  IC50: 1.46 nM
